{"source": "patent US20230105984A1", "about": "“COMPOSITIONS AND METHODS FOR THE TREATMENT OF LIVER DISEASES AND DISORDERS” (AXCELLA HEALTH INC., priority 2019, published 2023)", "key": {"[1]": {"test_system": "human primary hepatocytes", "test": "Intracellular lipid accumulation (steatosis) in primary human hepatocytes co-treated with sFA+TNF-α, LipidTOX fluorescence microscopy after 72h", "format": "cell-based", "design": "Rx effect (lipid): scale not given here", "settings": "for Rx effect (Lipid: total lipid area subtracted from baseline sFA+TNFa, normalized to nuclei count): 72 h; for Rx effect (lipid): donor 2", "method": "Hepatocyte lipotoxicity appears to be a central driver of hepatic cellular injury via oxidative stress and endoplasmic reticulum (ER) stress. The ability of amino acids combined to therapeutics agents (Rx) to influence steatosis (lipid accumulation) and inflammation in hepatocytes was assessed using human primary hepatocytes purchased from two sources: Lonza and Sekisui Xenotech. […] After 6 hours, cells were washed twice and incubated overnight at 37° C., 5% CO2 in hepatocytes plating media. On day 1, cells were washed twice and incubated for 24h in Hepatocytes defined medium (Corning) supplemented with 2mM Glutamax (Gibco), and 1x Penicillin/Streptomycin in the same conditions described above. […] The values are published in the Human Metabolome Database (Wishart DS, Tzur D, Knox C, et al., HMDB: the Human Metabolome Database. Nucleic Acids Res. 2007 Jan; 35(Database issue):[…]-6. 17202168; which is hereby incorporated by reference in its entirety). […] After 24 hours incubation, media was removed for chemokine analysis (MCP1) and the same co treatment was reapplied for an additional 48 hours for a total of 72 hours. After 72 hours, cells were washed twice with PBS 1x (Gibco), fixed with 4% Paraformaldehyde, and washed twice with PBS 1x (100 ul). […] The LipidTOXTM neutral lipid stain has an extremely high affinity for neutral lipid droplets that was detected by fluorescence microscopy using a high content imager (Molecular Devices). Lipid was normalized to the specific per well cell density determined by nuclei count."}, "MCP1/CCL2 secretion": {"test_system": "MCP1/CCL2 secretion", "test": "MCP1/CCL2 secretion by primary human hepatocytes co-treated with sFA+TNF-α, ELISA after 24h", "format": "cell-based", "design": "Rx effect / Rx effect (MCP1): scale not given here", "settings": "for Rx effect: MCP1; for MCP1 level / MCP1 secretion compared to baseline (sFA+TNF-α): Results 1, donors 1 and 2, AA compositions at 20X", "method": "Hepatocyte lipotoxicity appears to be a central driver of hepatic cellular injury via oxidative stress and endoplasmic reticulum (ER) stress. The ability of amino acids combined to therapeutics agents (Rx) to influence steatosis (lipid accumulation) and inflammation in hepatocytes was assessed using human primary hepatocytes purchased from two sources: Lonza and Sekisui Xenotech. Primary hepatocytes from two healthy human donor were seeded on day 0 at density of 60000 cells in 96 well optical microplates (Thermofisher) in hepatocyte plating media (William's E medium (Gibco) supplemented with 10% heat-inactivated FBS (Atlanta Bio), 2mM Glutamax (Gibco), and 0.2% Primocin (InVivoGen) and incubated for 6 hours at 37° C., 5% CO2. After 6 hours, cells were washed twice and incubated overnight at 37° C., 5% CO2 in hepatocytes plating media. On day 1, cells were washed twice and incubated for 24h in Hepatocytes defined medium (Corning) supplemented with 2mM Glutamax (Gibco), and 1x Penicillin/Streptomycin in the same conditions described above. On day 2, cells were washed twice with DPBS 1X (Gibco) and maintained in amino acid-free WEM (US Biologicals) containing a defined custom amino acid concentration based on the mean physiological concentrations in blood. The values are published in the Human Metabolome Database (Wishart DS, Tzur D, Knox C, et al., HMDB: the Human Metabolome Database. Nucleic Acids Res. 2007 Jan; 35(Database issue):[…]-6. 17202168; which is hereby incorporated by reference in its entirety). […] Cells were maintained in this defined pretreatment media for 24 hours at 37° C., 5% CO2. […] After 24 hours incubation, media was removed for chemokine analysis (MCP1) and the same co treatment was reapplied for an additional 48 hours for a total of 72 hours. Human CCL2 (MCP-1) was measured by ELISA (Human […] DuoSet ELISA, R&D Systems) at 1/20 dilution in 1X Reagent Diluent (Reagent Ancillary Kit 2, R&D Systems). Lipid was normalized to the specific per well cell density determined by nuclei count."}, "[2]": {"settings": "Results 1, donors 1 and 2, AA compositions at 20X"}}}
{"smiles": "Cc1cc(F)c(C(=O)Nc2cccc(-c3nncn3C(C)C)n2)cc1-n1cnc(C2CC2)c1", "note": "[Selonsertib, 5-(4-cyclopropyl-1H-imidazol-1-yl)-2-fluoro-N-(6-(4-isopropyl-4H-1,2,4-triazol-3-yl)pyridin-2-yl)-4-methylbenzamide]", "values": [{"measurement": "Rx effect (Lipid: total lipid area subtracted from baseline sFA+TNFa, normalized to nuclei count)", "setting": "[1]; Donor 1, Rx Conc. 0.063 µM", "value": -0.060}, {"measurement": "Rx effect (Lipid: total lipid area subtracted from baseline sFA+TNFa, normalized to nuclei count)", "setting": "[1]; Donor 1, Rx Conc. 1.000 µM", "value": -0.154}, {"measurement": "Rx effect (Lipid: total lipid area subtracted from baseline sFA+TNFa, normalized to nuclei count)", "setting": "[1]; Donor 1, Rx Conc. 4.000 µM", "value": -0.152}, {"measurement": "Rx effect (Lipid: total lipid area subtracted from baseline sFA+TNFa, normalized to nuclei count)", "setting": "[1]; Donor 2, Rx Conc. 0.063 µM", "value": -0.096}, {"measurement": "Rx effect (Lipid: total lipid area subtracted from baseline sFA+TNFa, normalized to nuclei count)", "setting": "[1]; Donor 2, Rx Conc. 1.000 µM", "value": -0.164}, {"measurement": "Rx effect (Lipid: total lipid area subtracted from baseline sFA+TNFa, normalized to nuclei count)", "setting": "[1]; Donor 2, Rx Conc. 4.000 µM", "value": -0.307}, {"measurement": "lipid level compared to baseline (sFA+TNFa)", "setting": "[1]; [2]", "value": "slight reduction in lipid level"}, {"measurement": "lipid level compared to baseline (sFA+TNFa)", "setting": "[1]; Results 2, donor 2", "value": "slight reduction in lipid level"}, {"measurement": "Rx effect (lipid)", "setting": "[1]; Rx 0.0625 µM", "value": -0.024}, {"measurement": "Rx effect (lipid)", "setting": "[1]; Rx 1 µM", "value": -0.156}, {"measurement": "Rx effect (lipid)", "setting": "[1]; Rx 4 µM", "value": -0.178}, {"measurement": "Rx effect", "setting": "MCP1/CCL2 secretion; donor 1, Rx 0.063 µM", "value": -0.167}, {"measurement": "Rx effect", "setting": "MCP1/CCL2 secretion; donor 1, Rx 1.000 µM", "value": -0.503}, {"measurement": "Rx effect", "setting": "MCP1/CCL2 secretion; donor 1, Rx 4.000 µM", "value": -0.552}, {"measurement": "Rx effect", "setting": "MCP1/CCL2 secretion; donor 2, Rx 0.063 µM", "value": -0.306}, {"measurement": "Rx effect", "setting": "MCP1/CCL2 secretion; donor 2, Rx 1.000 µM", "value": -0.152}, {"measurement": "Rx effect", "setting": "MCP1/CCL2 secretion; donor 2, Rx 4.000 µM", "value": -0.462}, {"measurement": "MCP1 level / MCP1 secretion compared to baseline (sFA+TNF-α)", "setting": "MCP1/CCL2 secretion", "value": "slight reduction in MCP1 secretion"}, {"measurement": "MCP1 level / MCP1 secretion level compared to the baseline (sFA+TNF-α)", "setting": "MCP1/CCL2 secretion; Results 2, donor 2", "value": "no change or a slight reduction in MCP1 secretion level"}, {"measurement": "Rx effect (MCP1)", "setting": "MCP1/CCL2 secretion; donor 2, Rx 0.0625 µM", "value": 0.004}, {"measurement": "Rx effect (MCP1)", "setting": "MCP1/CCL2 secretion; donor 2, Rx 1 µM", "value": -0.411}, {"measurement": "Rx effect (MCP1)", "setting": "MCP1/CCL2 secretion; donor 2, Rx 4 µM", "value": -0.463}]}
{"smiles": "O=C(O)c1cc(F)c2nc(N3C4CC[C@H]3C[C@H](OCc3c(-c5ccccc5OC(F)(F)F)noc3C3CC3)C4)sc2c1", "note": "[Tropifexor, 2-[(3-endo)-3-[[5-cyclopropyl-3-[2-(trifluoromethoxy)phenyl]-4-isoxazolyl]methoxy]-8-azabicyclo[3.2.1]oct-8-yl]-4-fluoro-6-benzothiazolecarboxylic acid]", "values": [{"measurement": "Rx effect (Lipid: total lipid area subtracted from baseline sFA+TNFa, normalized to nuclei count)", "setting": "[1]; Donor 1, Rx Conc. 0.063 µM", "value": 0.169}, {"measurement": "Rx effect (Lipid: total lipid area subtracted from baseline sFA+TNFa, normalized to nuclei count)", "setting": "[1]; Donor 1, Rx Conc. 1.000 µM", "value": 0.185}, {"measurement": "Rx effect (Lipid: total lipid area subtracted from baseline sFA+TNFa, normalized to nuclei count)", "setting": "[1]; Donor 1, Rx Conc. 4.000 µM", "value": 0.214}, {"measurement": "Rx effect (Lipid: total lipid area subtracted from baseline sFA+TNFa, normalized to nuclei count)", "setting": "[1]; Donor 2, Rx Conc. 0.063 µM", "value": 0.132}, {"measurement": "Rx effect (Lipid: total lipid area subtracted from baseline sFA+TNFa, normalized to nuclei count)", "setting": "[1]; Donor 2, Rx Conc. 1.000 µM", "value": 0.083}, {"measurement": "Rx effect (Lipid: total lipid area subtracted from baseline sFA+TNFa, normalized to nuclei count)", "setting": "[1]; Donor 2, Rx Conc. 4.000 µM", "value": 0.049}, {"measurement": "lipid level compared to baseline (sFA+TNFa)", "setting": "[1]; [2]", "value": "slight increase in lipid level"}, {"measurement": "Rx effect", "setting": "MCP1/CCL2 secretion; donor 1, Rx 0.063 µM", "value": 0.956}, {"measurement": "Rx effect", "setting": "MCP1/CCL2 secretion; donor 1, Rx 1.000 µM", "value": 0.877}, {"measurement": "Rx effect", "setting": "MCP1/CCL2 secretion; donor 1, Rx 4.000 µM", "value": 0.658}, {"measurement": "Rx effect", "setting": "MCP1/CCL2 secretion; donor 2, Rx 0.063 µM", "value": -0.16}, {"measurement": "MCP1 level / MCP1 secretion compared to baseline (sFA+TNF-α)", "setting": "MCP1/CCL2 secretion", "value": "slight increase"}]}
